In patent US8927500B2, “Peptidomimetic macrocycles” (Aileron Therapeutics, Inc., priority 2012, dated 2015):
Where two headings read alike, the source gives them in different places. Where a SMILES comes first, the peptide text is derived from it. Bridges are numbered along the chain shown (N, C = ends). [ ]: non-standard residue; d: D form. Phe(4-COOH) = N[C@@H](Cc1ccc(C(=O)O)cc1)C(=O)O; R8 = C=CCCCCCC[C@@](C)(N)C(=O)O; Cba = N[C@@H](CC1CCC1)C(=O)O; S5 = C=CCCC[C@](C)(N)C(=O)O

What was measured:
MDM2 = MDM2 (Homo sapiens, UniProt Q00987); assay: Competitive fluorescence polarization assay for MDM2; type: binding; conditions: competitive FP assay, MDM2
MDMX = molecular target: T1, MDMX (Homo sapiens, UniProt O15151); assay: Competitive fluorescence polarization assay for MDMX; type: binding; conditions: competitive FP assay
T1 sequence (O15151 1-125): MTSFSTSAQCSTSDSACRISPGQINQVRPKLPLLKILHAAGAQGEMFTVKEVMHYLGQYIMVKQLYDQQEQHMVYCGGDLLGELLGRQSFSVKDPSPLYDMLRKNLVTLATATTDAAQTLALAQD

Caspase 3 = Caspase 3 detection assay in SJSA1 cells; type: cell-based; conditions: 48 h, Caspase 3 activation over DMSO-treated cells; for caspase 0.3 uM: 0.3 uM peptide; for caspase 1 uM: 1 uM peptide; for caspase 3 uM: 3 uM peptide; for caspase 10 uM: 10 uM peptide; for caspase 30 uM: 30 uM peptide
SJSA-1 cells = assay: Cell lysis by peptidomimetic macrocycles (LDH release); type: cell-based; conditions: 1 h at 37C
Protocol: On the day of the assay, media was exchanged with RPMI 1% FBS media, 90 uL of media per well.
10 mM stock solutions of the peptidomimetic macrocycles were prepared in 100% DMSO.
The negative control (non-lytic) sample was 0.5% DMSO alone and positive control (lytic) samples include 10 uM Melittin and 1% Triton X-100.
Cell plates were incubated for 1 hour at 37C. After the 1 hour incubation, the morphology of the cells is examined by microscope and then the plates were centrifuged at 1200 rpm for 5 minutes at room temperature. 40 uL of supernatant for each peptidomimetic macrocycle and control sample is transferred to clear assay plates.

Chain of MDM2 (Q00987 1-125): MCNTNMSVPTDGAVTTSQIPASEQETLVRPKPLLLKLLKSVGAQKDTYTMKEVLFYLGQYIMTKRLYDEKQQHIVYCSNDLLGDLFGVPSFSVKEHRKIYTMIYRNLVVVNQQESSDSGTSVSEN

Structure (SMILES) | IC50 (MDM2; read-out: IC50 (MDM2)) | Ki (MDM2; read-out: Ki (MDM2)) | IC50 (MDMX; read-out: IC50 (MDMX)) | Ki (MDMX; read-out: Ki (MDMX)) | caspase 0.3 uM (Caspase 3) | caspase 1 uM (Caspase 3) | caspase 3 uM (Caspase 3) | caspase 10 uM (Caspase 3) | caspase 30 uM (Caspase 3) | 6.25 uM % Lysed cells (1 h LDH) (SJSA-1 cells) | 25 uM % Lysed cells (1 h LDH) (SJSA-1 cells) | 50 uM % Lysed cells (1 h LDH) (SJSA-1 cells) | IC50 (MDM2; IC50 (MDM2)) | Ki (MDM2; Ki (MDM2)) | IC50 (MDMX; IC50 (MDMX)) | Ki (MDMX; Ki (MDMX))
CC[C@H](C)[C@H](NC(=O)[C@H](C)NC(=O)[C@H](C)NC(=O)[C@]1(C)CCCC=CCCCCCC[C@@](C)(NC(=O)[C@H](Cc2ccccc2)NC(=O)[C@@H](NC(=O)[C@H](CC(C)C)NC(C)=O)[C@@H](C)O)C(=O)N[C@@H](C)C(=O)N[C@@H](Cc2ccc(O)cc2)C(=O)N[C@@H](Cc2c[nH]c3ccccc23)C(=O)N[C@@H](C)C(=O)N[C@@H](C)C(=O)N[C@@H](CC(C)C)C(=O)N1)C(=O)N[C@H](C)C(N)=O (single isomer, unassigned) [compound 203] | 0.01 to 0.1 µM | < 0.01 µM | 0.1 to 1 µM | 0.01 to 0.1 µM | 1 |  | 3 | 12 | 10 | 0% | 2% | 2% |  |  |  | 
CC(=O)N[C@@H](CC(C)C)C(=O)N[C@H](C(=O)N[C@@H](Cc1ccccc1)C(=O)N[C@]1(C)CCCCCCC=CCCC[C@@](C)(C(=O)N[C@@H](CO)C(=O)N[C@@H](C)C(=O)N[C@@H](CC(C)C)C(N)=O)NC(=O)[C@H](CC(C)C)NC(=O)[C@H](CCC(N)=O)NC(=O)[C@H](C)NC(=O)[C@H](Cc2c[nH]c3ccccc23)NC(=O)[C@H](Cc2ccc(O)cc2)NC(=O)[C@H](C)NC1=O)[C@@H](C)O [compound 4] (Ac-LTF[R8]AYWAQL[S5]SAL-NH2; staple 4-11) | 0.01 to 0.1 µM | < 0.01 µM | 0.1 to 1 µM | 0.01 to 0.1 µM |  |  | 9 | 37 | 35 | −2% | 1% | 2% |  |  |  | 
CC[C@H](C)[C@H](NC(=O)[C@H](C)NC(=O)[C@H](C)NC(=O)[C@]1(C)CCCC=CCCCCCC[C@@](C)(NC(=O)[C@H](Cc2ccccc2)NC(=O)[C@@H](NC(=O)[C@H](CC(C)C)NC(C)=O)[C@@H](C)O)C(=O)N[C@@H](C)C(=O)N[C@@H](Cc2ccc(O)cc2)C(=O)N[C@@H](Cc2c[nH]c3ccccc23)C(=O)N[C@@H](C)C(=O)N[C@@H](C)C(=O)N[C@@H](CC(C)C)C(=O)N1)C(=O)N[C@@H](C(N)=O)C(C)C (single isomer, unassigned) [compound 77] | 0.01 to 0.1 µM | < 0.01 µM | 0.1 to 1 µM | 0.01 to 0.1 µM | 1 |  | 2 | 19 | 23 | −2% | 1% | −1% |  |  |  | 
CC(=O)N[C@@H](CCC(=O)O)C(=O)N[C@H](C(=O)N[C@@H](Cc1ccccc1)C(=O)N[C@]1(C)CCCCCCC=CCCC[C@@](C)(C(=O)N[C@@H](C)C(=O)N[C@@H](C)C(=O)N[C@@H](C)C(=O)N[C@@H](C)C(=O)N[C@@H](C)C(=O)N[C@H](C)C(N)=O)NC(=O)[C@H](CC(C)C)NC(=O)[C@H](CCC(N)=O)NC(=O)[C@H](C)NC(=O)[C@H](Cc2c[nH]c3ccccc23)NC(=O)[C@H](Cc2ccc(O)cc2)NC(=O)[C@H](CCC(=O)O)NC1=O)[C@@H](C)O (single isomer, unassigned) [compound 341] |  |  |  |  | 3 | 8 | 11 | 14 | 21 | 0% | 0% | 0% | 0.01 to 0.1 µM | < 0.01 µM | 0.01 to 0.1 µM | < 0.01 µM
CC[C@H](C)[C@H](NC(=O)[C@H](C)NC(=O)[C@H](C)NC(=O)[C@]1(C)CCC/C=C/CCCCCC[C@@](C)(NC(=O)[C@H](Cc2ccccc2)NC(=O)[C@@H](NC(=O)[C@H](CC(C)C)NC(C)=O)[C@@H](C)O)C(=O)N[C@@H](CCC(=O)O)C(=O)N[C@@H](Cc2ccc(C(=O)O)cc2)C(=O)N[C@@H](Cc2c[nH]c3ccccc23)C(=O)N[C@@H](C)C(=O)N[C@@H](CCC(N)=O)C(=O)N[C@@H](CC2CCC2)C(=O)N1)C(=O)N[C@H](C)C(N)=O [compound 249] (Ac-LTF[R8]E[Phe(4-COOH)]WAQ[Cba][S5]AAI[dA]-NH2; staple (E) 4-11) | 0.01 to 0.1 µM | < 0.01 µM | 0.01 to 0.1 µM | < 0.01 µM | 2 |  | 5 | 11 | 23 | 0% | 0% | 0% |  |  |  | 

Now from value to compound, other results behind:

IC50 (MDM2; read-out: IC50 (MDM2)) | Ki (MDM2; read-out: Ki (MDM2)) | IC50 (MDMX; read-out: IC50 (MDMX)) | Ki (MDMX; read-out: Ki (MDMX)) | Structure (SMILES) | caspase 0.3 uM (Caspase 3) | caspase 1 uM (Caspase 3) | caspase 3 uM (Caspase 3) | caspase 10 uM (Caspase 3) | caspase 30 uM (Caspase 3) | 6.25 uM % Lysed cells (1 h LDH) (SJSA-1 cells) | 25 uM % Lysed cells (1 h LDH) (SJSA-1 cells) | 50 uM % Lysed cells (1 h LDH) (SJSA-1 cells) | IC50 (MDM2; IC50 (MDM2)) | Ki (MDM2; Ki (MDM2)) | IC50 (MDMX; IC50 (MDMX)) | Ki (MDMX; Ki (MDMX))
< 0.01 µM | < 0.01 µM | 0.01 to 0.1 µM | < 0.01 µM | CC(=O)N[C@@H](CC(C)C)C(=O)N[C@H](C(=O)N[C@@H](Cc1ccccc1)C(=O)N[C@]1(C)CCCCCC/C=C/CCC[C@@](C)(C(=O)N[C@@H](C)C(=O)N[C@@H](C)C(=O)N[C@@H](C)C(=O)N[C@@H](C)C(=O)N[C@@H](C)C(=O)N[C@H](C)C(N)=O)NC(=O)[C@H](CC2CCC2)NC(=O)[C@H](CCC(N)=O)NC(=O)[C@H](CO)NC(=O)[C@H](Cc2c[nH]c3ccccc23)NC(=O)[C@H](Cc2ccc(O)cc2)NC(=O)[C@H](CCC(=O)O)NC1=O)[C@@H](C)O [compound 351] (Ac-LTF[R8]EYWSQ[Cba][S5]AAAAA[dA]-NH2; staple (E) 4-11) | 3 | 9 | 13 | 15 | 24 | 0% | 0% | 0% |  |  |  | 
< 0.01 µM | < 0.01 µM | 0.01 to 0.1 µM | < 0.01 µM | CC(=O)N[C@@H](C)C(=O)N[C@@H](CC(C)C)C(=O)N[C@H](C(=O)N[C@@H](Cc1ccccc1)C(=O)N[C@]1(C)CCCCCCC=CCCC[C@@](C)(C(=O)N[C@@H](CO)C(=O)N[C@@H](C)C(=O)N[C@@H](C)C(=O)N[C@H](C)C(N)=O)NC(=O)[C@H](CC2CCC2)NC(=O)[C@H](CCC(N)=O)NC(=O)[C@H](C)NC(=O)[C@H](Cc2c[nH]c3ccccc23)NC(=O)[C@H](Cc2ccc(O)cc2)NC(=O)[C@H](CCC(=O)O)NC1=O)[C@@H](C)O (single isomer, unassigned) [compound 355] | 1 | 4 | 11 | 13 | 30 | 0% | 0% | 0% |  |  |  | 
< 0.01 µM | < 0.01 µM | 0.01 to 0.1 µM | < 0.01 µM | CC(=O)N[C@@H](C)C(=O)N[C@@H](CC(C)C)C(=O)N[C@H](C(=O)N[C@@H](Cc1ccccc1)C(=O)N[C@]1(C)CCCCCCC=CCCC[C@@](C)(C(=O)N[C@@H](CO)C(=O)N[C@@H](C)C(=O)N[C@@H](C)C(=O)N[C@@H](C)C(=O)N[C@H](C)C(N)=O)NC(=O)[C@H](CC2CCC2)NC(=O)[C@H](CCC(N)=O)NC(=O)[C@H](C)NC(=O)[C@H](Cc2c[nH]c3ccccc23)NC(=O)[C@H](Cc2ccc(O)cc2)NC(=O)[C@H](CCC(=O)O)NC1=O)[C@@H](C)O (single isomer, unassigned) [compound 357] | 2 | 7 | 11 | 15 | 23 | 0% | 0% | 0% |  |  |  | 
< 0.01 µM | < 0.01 µM | 0.1 to 1 µM | 0.01 to 0.1 µM | CC(=O)N[C@@H](CCC(=O)O)C(=O)N[C@H](C(=O)N[C@@H](Cc1ccccc1)C(=O)N[C@]1(C)CCCCCCC=CCCC[C@@](C)(C(=O)N[C@@H](CO)C(=O)N[C@H](C(=O)N[C@@H](CO)C(N)=O)C(C)C)NC(=O)[C@H](CC(C)C)NC(=O)[C@H](CCC(N)=O)NC(=O)[C@H](C)NC(=O)[C@H](Cc2c[nH]c3ccccc23)NC(=O)[C@H](Cc2ccc(O)cc2)NC(=O)[C@H](C(C)C)NC1=O)[C@@H](C)O [compound 130] (Ac-ETF[R8]VYWAQL[S5]SVS-NH2; staple 4-11) | 1 |  | 2 | 6 | 17 | 1% | 0% | −1% |  |  |  | 
< 0.01 µM | < 0.01 µM | 0.1 to 1 µM | 0.01 to 0.1 µM | CC[C@H](C)[C@H](NC(=O)[C@H](C)NC(=O)[C@H](C)NC(=O)[C@]1(C)CCCC=CCCCCCC[C@@](C)(NC(=O)[C@H](Cc2ccccc2)NC(=O)[C@@H](NC(=O)[C@H](CCC(=O)O)NC(C)=O)[C@@H](C)O)C(=O)N[C@@H](CCC(=O)O)C(=O)N[C@@H](Cc2c[nH]cn2)C(=O)N[C@@H](Cc2c[nH]c3ccccc23)C(=O)N[C@@H](C)C(=O)N[C@@H](CCC(N)=O)C(=O)N[C@@H](CC(C)C)C(=O)N1)C(=O)N[C@H](C)C(N)=O (single isomer, unassigned) [compound 175] | 1 |  | 5 | 12 | 21 | 3% | 1% | 0% |  |  |  | 
